Results taken from patent US20250073234A1, “COMBINATION THERAPIES INCLUDING PARP1 INHIBITORS” (Cornell University, priority 2022, published 2025).

Tests used:
[1] = system: PC3 cells; assay: Click-iT EdU proliferation of PC3 cells treated with CM from WPMY-1 cells; assay type: cell-based, human; details: CM from Olaparib-treated WPMY-1, 24 h
Description: WPMY-1 cells were cultured in DMEN containing 10% FBS (basal conditions) or 10% charcoal stripped FBS (ADT conditions), then the cells were treated with vehicle (DMSO), Olaparib 10 μM, Olaparib 10 μM+PEGPH20 2.5 μg/ml for 96 hours, refreshing media and stimuli at 48 hours, conditioned media (CM) was generated by collecting supernatant on day 4. PC3 cells were seeded in a black-walled well (Thermo Fisher) and serum starved overnight. CM from WPMY-1 cells was added to PC3 for 24 h. PC3 were exposed to EdU incorporation for the last 2 hours. Proliferating cells were detected using Click-iT EdU Alexa fluor 488 (Thermo Fisher) following the manufacturer's instructions. Pictures were taken using EVOS M5000 Imaging System and EdU positive were measured using Fiji (Schindelin et al., 2012).

[2] = system: RM1-BoMe3 metastases; assay: Caudal artery injection RM1-BoMe3 metastasis model; assay type: in vivo, mouse; details: Olaparib 40 mg/kg i.p., 3 weeks
Description: Tissues from indicated mice were isolated, fixed in zinc buffered formalin overnight at 4° C., dehydrated, and embedded in paraffin. Sections (5 μm) were stained with hematoxylin and eosin (H&E). For immunohistochemistry, sections were deparaffinized, rehydrated, and then treated for antigen retrieval. After blocking in Protein Block Serum-Free solutions (DAKO), tissues were incubated with primary antibody overnight at 4° C. followed by incubation with biotinylated secondary antibody. Endogenous peroxidase was quenched in 3% H2O2 in water for 10 minutes at room temperature. Antibodies were visualized with avidin-biotin complex (Vectastain Elite; Vector Laboratories) using diaminobenzidine as the chromogen. Stained sections were analyzed with a Zeiss light microscope supplemented with Zen 3.3 Bule edition software.
For the metastasis model, caudal artery injection was performed with 500000 RM1-BoMe3-RFP-Luc prostate cancer epithelial cells in 150 μl of PBS n=10 in 8-week-old C57B16 male mice. After 1-week luciferase was visualized using IVIS to detect signal in the lower limbs and in less frequently in visceral organs, mice with signal were randomly distributed to receive vehicle, n=5, or Olaparib n=5 (40 mg/kg/, 5 days each, i.p.). After 3 weeks, mice were euthanized and ex-vivo IVIS was performed in lower limbs, vertebrae, and visceral organs to detect metastasis sites. Tissues were collected and analyzed histologically.

[3] = system: WPMY-1 fibroblasts; assay: GSEA of RNAseq data from WPMY-1 fibroblasts; assay type: cell-based, human; details: for GSEA inflammatory signaling pathways (TNFα, IL-6, JAK-STAT): Olaparib 20 μM vs DMSO
Description: Total RNA was extracted using Quick-RNA MiniPrep kit (Zymo Research). Libraries were prepared from 200 ng of total RNA using the QuantSeq 3′ mRNA-Seq Library Prep Kit FWD for Illumina from Lexogen, and optional UMIs (Vienna, Austria). Barcoded libraries were pooled, and single end sequenced (1×75) on the Illumina NextSeq 500 using the High output V2.5 kit (Illumina Inc., San Diego CA).
(§1) Peaks were annotated with ChipSeeker R package. […].

[4] = system: PC3 cells; assay: Trans-well migration and invasion of PC3 cells co-cultured with pre-treated WPMY-1 cells; assay type: cell-based, human; details: co-culture with Olaparib-pretreated WPMY-1, 20 h, basal and ADT
Description: For co-culture migration and invasion assays, 8×10^4 WPMY-1 cells were plated onto the lower chamber of a 24 well plate in DMEN containing 10% FBS (basal conditions) or 10% charcoal stripped FBS (ADT conditions) and vehicle (DMSO) or Olaparib 10 μM or Olaparib 10 μM+PEGPH20 2.5 μg/ml for 48 hours. 5×10^4 PC3 were seeded in a transwell chamber (Corning Biocoat control inserts) or in a transwell invasion chamber (Corning BioCoat Matrigel Invasion Chambers), both with 8 μm membrane. PC3 were allowed to migrate or invade for 20 hours at 37° C., 5% CO2. Cells were fixed in cold methanol and stained with crystal violet.

[5] = system: RM1-BoMe3 cells on femur pieces; assay: Bone-in-culture array (BICA) with RM1-BoMe3 cells; assay type: cell-based, mouse; details: bone pre-treated with Olaparib 20 μM 48 h, ADT conditions
Description: 8-week-old C57B16 male mice were euthanized, and lower limb bone were collected. Femur epiphyses were dissected and fragmented in 4 pieces by sterilized micro dissecting scissors. Bone pieces were aligned into low-attachment 96-well plates pre-loaded with 200 μL DMEM/F12 supplemented with 5% charcoal striped FBS for ADT conditions. Bone pieces were treated with DMSO or Olaparib 20 μM for 48 h and then 5000 RM1-BoMe3-RFP-Luc cells were seed on top of the bone pieces. After 48 hours, pictures were taken using EVOS M5000 Imaging System and RFP^+ positive areas were measured using Fiji.

[6] = system: WPMY-1 cells; assay: ATAC-seq chromatin accessibility in WPMY-1 cells; assay type: cell-based, human; details: Olaparib-treated WPMY-1 cells, 96 h
Description: The cell pellet was resuspended in 50 μl lysis buffer and then spun down 500×g for 10 minutes at 4° C. The nuclei pellet was resuspended into 50 μl transposition reaction mixture containing Tn5 transposase from Nextera DNA Library Prep Kit (Illumina) and incubated at 37° C. for 30 minutes. Then the transposase-associated DNA was purified using MinElute PCR purification kit (QIAGEN). To amplify the library, the DNA was first amplified for 5 cycles using indexing primer from Nextera kit and NEBNext High-Fidelity 2×PCR master mix. To reduce the PCR amplification bias, 5 μl of amplified DNA after the first 5 cycles was used to do qPCR of 20 cycles to decide the number of cycles for the second round of PCR. Usually, the maximum cycle of the second round of PCR is 5 cycles. Then the total amplified DNA was size selected to fragments less than 800 bp using SPRI beads. Quantification of the ATAC-seq library was done with QuBit. The size of the pooled library was examined by TapeStation. Barcoded ATAC-seq libraries were pooled and paired end sequenced (sX75) on the Illumina NextSeq 500 using the High output V2.5 kit (Illumina Inc., San Diego, CA).
as §1

## O=C(c1cc(Cc2n[nH]c(=O)c3ccccc23)ccc1F)N1CCN(C(=O)C2CC2)CC1 [Olaparib]
[1]
  PC3 proliferation (EdU positive cells): increased PC3 proliferation
[2]
  HA deposition in liver metastasis (IHC): increased HA deposition in Olaparib-treated liver metastasis
  TGFβ signaling in bone metastasis (nuclear pSMAD2): increased pSMAD2 staining in bone metastasis
[2]; listed as Ola
  HA deposition in liver metastasis (IHC): deposition of HA was observed
  TGFβ signaling in bone metastasis (nuclear pSMAD2): increased activation of TGFβ signaling
[3]
  GSEA inflammatory signaling pathways (TNFα, IL-6, JAK-STAT): increased inflammatory related signatures
[3]; listed as Ola
  GSEA inflammatory signaling pathways (TNFα, IL-6, JAK-STAT): significant enrichment was found in inflammatory signaling pathways
[3]; basal or ADT conditions
  GSEA signatures of extracellular matrix remodeling / CAF activation: enrichment of signatures corresponding to extracellular matrix remodeling
[4]
  migration and invasion of PC3 cells: increased migration and invasion of PCa cells
[5]
  seeding of cancer cells onto the bone (RFP+ area): increased tumor homing of RM1-BoMe3
[5]; listed as Ola
  seeding of cancer cells onto the bone (RFP+ area): significantly increased the seeding of cancer cells onto the bone
[6]
  chromatin accessibility: strong decrease in chromatin accessibility across the genome
